# Measurements published in ChEMBL document CHEMBL5131545, “Targeting NOX2 via p47/phox-p22/phox Inhibition with Novel Triproline Mimetics” (ACS Med Chem Lett, 2022).
# *1 amine or outer side, *2 acyl side, *3 side chain or, on linkers, in order; H or OH if unused. Where a SMILES comes first, the peptide text is derived from it. The star is where a group is joined. X1 = Clc1ccc(-c2cccc(N*)c2)cc1Cl; Suc = O=C(CCC(=O)[*:2])[*:1]; X2 = C(CC1CC1)N*
# Target: T1, Neutrophil cytosol factor 1 (Homo sapiens, UniProt P14598)
# T1 sequence (P14598 whole entry): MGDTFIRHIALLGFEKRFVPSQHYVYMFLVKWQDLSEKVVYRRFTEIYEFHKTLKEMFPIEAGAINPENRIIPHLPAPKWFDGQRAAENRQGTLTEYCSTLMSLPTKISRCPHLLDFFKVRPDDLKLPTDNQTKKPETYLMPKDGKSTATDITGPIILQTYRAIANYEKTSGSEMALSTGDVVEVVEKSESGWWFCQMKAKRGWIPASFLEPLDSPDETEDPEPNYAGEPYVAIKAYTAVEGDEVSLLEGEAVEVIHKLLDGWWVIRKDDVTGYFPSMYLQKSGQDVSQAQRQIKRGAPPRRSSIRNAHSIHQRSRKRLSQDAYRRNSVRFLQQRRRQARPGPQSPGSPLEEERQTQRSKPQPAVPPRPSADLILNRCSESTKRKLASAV
# Experiment: Binding affinity to human N-terminal TEV cleavable 6His tagged p47phox (151-285 residues) assessed as dissociation […] constant by Surface plasmon resonance assay
row,Kd [nM],Structure (SMILES)
1,43,N=C(N)NCCC[C@H](NC(=O)[C@@H]1CCCN1C(=O)[C@@H]1CCCN1C(=O)[C@@H]1CCCN1C(=O)CCC(=O)Nc1cccc(-c2ccc(Cl)c(Cl)c2)c1)C(=O)NCCC1CC1 ({X1-Suc}-PPPR-X2)
2,5710,N=C(N)NCC1CCN(C(=O)[C@@H]2CCCN2C(=O)[C@@H]2CCCN2C(=O)[C@@H]2CCCN2C(=O)CCC(=O)Nc2cccc(-c3cnco3)c2)CC1
3,312,N=C(N)NCCC[C@H](NC(=O)[C@@H]1CCC[C@H]1[C@@H](O)[C@@H]1CCCN1C(=O)[C@@H]1CCCN1C(=O)CCC(=O)Nc1cccc(-c2ccc(Cl)c(Cl)c2)c1)C(=O)NCCC1CC1
4,214,C[C@H](NC(=O)[C@@H]1CCCN1C(=O)[C@@H]1CCCN1C(=O)[C@H](CCCNC(=N)N)NC(=O)[C@@H]1CCCN1C(=O)[C@@H]1CCCN1C(=O)[C@@H]1CCCN1C(=O)[C@H](CC(N)=O)NC(=O)[C@H](CO)NC(=O)[C@@H]1CCCN1C(=O)[C@@H]1CCCN1)C(=O)O (H-PPSNPPPRPPA-OH)
5,> 30000,N=C(N)NCCC[C@H](NC(=O)[C@@H]1CCCN1C(=O)[C@@H]1CCC[C@H]1[C@@H](O)[C@@H]1CCCN1C(=O)CCC(=O)Nc1cccc(-c2ccc(Cl)c(Cl)c2)c1)C(=O)NCCC1CC1
